Reference: patent publication US20240016781A1, “TREATMENT OF KRAS MUTANT CANCERS” (MEI Pharma, Inc., priority 2020, published 2024)

Assays:
[1] = test system: MYC (pSer62 and total) in MIA PACA-2 (G12C) cells; test: Western blot of MYC and pSer62-MYC in MIA PACA-2 cells; format: cell-based; conditions: 4 μM Voruciclib
Procedure: (§1) Voruciclib is an oral inhibitor of CDKs 9, 4, 6, and 1 currently being tested in Phase 1B clinical trials for B-cell malignancies and acute myeloid leukemia. Voruciclib inhibition of CDK9 leads to decreased expression of transcriptional targets of RNA Pol II, such as Mcl1 and MYC. To test whether Voruciclib could be effective in cancers driven by dysregulated KRAS-MYC signaling, ˜20 cancer cell lines with KRAS mutations (G12A, G12C, G12D, G12S, G12V, G13C, G13D, Q61H) were treated in preclinical studies with Voruciclib. MTS and Cell Titer Glo assays were used to monitor growth in vitro. […] To investigate MYC protein stability, MIA PACA-2 (G12C) cells were treated with 4 μM Voruciclib for 5-240 min, followed by SDS-PAGE and Western Blotting analysis with α-MYC and α-pSer62-MYC antibodies. […] A 60% decrease in pSer62 was observed after 5 min that reached 80% by 60 min. […] The ability of Voruciclib to inhibit tumor growth in vivo was also tested in murine xenograft models. KRAS mutant human cancer cells HCT-116 (CRC, KRAS G13D), SW-480 (CRC, KRAS G12V), and H-460 (NSCLC, KRAS Q61H) were injected subcutaneously into SCID mice. Once tumors reached 5-10 mm in diameter, Voruciclib or vehicle were administered orally at 50, 100, or 200 mg/kg OD for 11-14 days. Tumors were measured every 2-3 days, and growth inhibition relative to control was calculated.
FIG. 32—Voruciclib causes rapid inhibition MYC pSer62 phosphorylation and reduces MYC protein levels. Immunoblot analyses of c-MYC, phospho-c-MYC (Ser62), and actin in MIA Paca-2 KRAS G12C mutant PDAC cells. (FIG. 32A) Cells were treated with vehicle control, voruciclib (VOR, 4 μM), or the AZD4573 (AZD, a CDK9 inhibitor, 400 nM) for the indicated times. (FIG. 32B) Cells were treated with various concentrations of voruciclib or AZD4573 for the indicated time. Relative densitometry values are indicated.

[2] = test system: MYC protein in AML cells; conditions: 3 hr; cited from earlier work
[3] = test system: MIA Paca-2 cells; test: Voruciclib-sensitive phosphoproteome (TMT, LC-MS/MS); format: cell-based; conditions: voruciclib 4 μM over time
Procedure: Cells were treated with voruciclib (4 μM) over time. (FIG. 31A) Summary of peptide quantification after TMT labelling and analysis by LC-MS/MS. (FIG. 31B) Volcano plots of phosphosites (log 2 fold change vs −log 10 p-value).
To define the CDK9-dependent phosphoproteome, cells are treated for a short time period with VOR followed by harvesting of the cells, IMAC enrichment, 16-plex isobaric tagging, and analysis by LC/MS/MS. A time course or different doses or drug combinations for the conditions can be performed. This experiment provides insight into novel CDK9 substrates and inroads into possible therapeutic areas for CDK9 inhibition by VOR.

[4] = clinical; conditions: human, in vivo
Source text: Voruciclib half life is designated as t½ in the tables (expressed in hours).
Voruciclib volume of distribution is designated as Vz/F (expressed in liters).

[5] = test system: SW-480 (CRC, KRAS G12V); test: Murine xenograft tumor growth inhibition, SW-480; format: in vivo, SCID mice; conditions: SW-480 xenograft; orally 50, 100, or 200 mg/kg OD for 11-14 days; all doses
Procedure: as §1, with “calculated. […]” for “calculated.”

additional time to clear from the tissue after it clears the plasma [4]: 3 days
time for the drug to be eliminated from the plasma after stopping [4]: 5 to 10 days
volume of distribution [4]: High volume of distribution
volume of distribution relative to blood volume [4]: ~60 times
half-life ([4]; Half life): 24 to 28 h
SMILES: CN1CC[C@@H](c2c(O)cc(O)c3c(=O)cc(-c4ccc(C(F)(F)F)cc4Cl)oc23)[C@@H]1CO [Voruciclib, (+)-trans-2-(2-Chloro-4-trifluoromethylphenyl)-5,7-dihydroxy-8-(2-hydroxymethyl-1-methylpyrrolidin-3-yl)-chromen-4-one]
decrease in total MYC protein ([1]; 5 or 15 min): no decrease in total MYC protein
reduction in total MYC ([1]; 60 min): 10%
reduction in total MYC ([1]; 240 min): 50%
decrease in pSer62 (MYC) ([1]; after 5 min): 60%
decrease in pSer62 (MYC) ([1]; by 60 min): 80%
MYC protein [2]: decrease in MYC protein
phosphoproteome change [3]: rapid downregulation of phosphoproteins controlling transcription of MYC
tumor growth inhibition relative to control [5]: > 50%
